Laboratory results published in PMC3583384 (Journal of medicinal chemistry, 2012).
Entries after “also recorded” stand apart in the source; their conditions may differ. Where two headings read alike, the source gives them in different places.

How the values were obtained:
[1] = system: non-iron-overloaded bile duct-cannulated rats; conditions: rats po 150 µmol/kg, cited from earlier work; for relative percentages of the iron excreted in the bile and urine [bile/urine]: Cremophor RH-40/water
iron overloaded primates [2] = conditions: cited from earlier work
rats = conditions: cited from earlier work
[3] = cited from earlier work
patients = conditions: clinical trial, twice daily dosing; cited from earlier work
iron overloaded primates [4] = conditions: primates po 75 µmol/kg, monosodium salt
[5] = system: rats with normal iron stores; conditions: for BUN / SCr: rats po 237 µmol/kg b.i.d. × 7 d (6: euthanized day 8)
[6] = Ligand-plasma binding, rodent plasma; type: in vitro ADME; conditions: 37 °C, 4 h, 3,000 MWCO filter
[7] = Ligand-plasma binding, primate plasma; type: in vitro ADME; conditions: 37 °C, 4 h, 3,000 MWCO filter

## C[C@]1(C(=O)[O-])CSC(c2ncccc2O)=N1.[Na+] [Compound 1, (S)-4,5-dihydro-2-(3-hydroxy-2-pyridinyl)-4-methyl-4-thiazolecarboxylic acid]
[1]
  relative percentages of the iron excreted in the bile and urine [bile/urine]: 93/7
  time at which deferration had returned to baseline: ≤ 12 h
Iron overloaded primates [2]; primates po 150 µmol/kg
  relative percentages of the iron excreted in the feces and urine [feces/urine]: 78/22
rats; rats po once daily 384 µmol/kg/d
  nephrotoxicity: severely nephrotoxic

## C[C@]1(C(=O)[O-])CSC(c2ccccc2O)=N1.[Na+] [Compound 2, (S)-4,5-dihydro-2-(2-hydroxyphenyl)-4-methyl-4-thiazolecarboxylic acid]
[1]
  relative percentages of the iron excreted in the bile and urine [bile/urine]: 100/0
  time at which deferration had returned to baseline: ≤ 12 h
Iron overloaded primates [2]; primates po 75 µmol/kg
  relative percentages of the iron excreted in the feces and urine [feces/urine]: 76/24
[3]
  gastrointestinal toxicity: serious gastrointestinal (GI) problems
  nephrotoxicity: not overtly nephrotoxic

## C[C@]1(C(=O)[O-])CSC(c2ccc(O)cc2O)=N1.[Na+] [Compound 3, (S)-2-(2,4-dihydroxyphenyl)-4,5-dihydro-4-methyl-4-thiazolecarboxylic acid]
patients
  renal findings in patients: increases in blood urea nitrogen (BUN) and serum creatinine (SCr) levels; also recorded: induced proximal tubule nephrotoxicity

## COCCOCCOCCOc1ccc(C2=N[C@@](C)(C(=O)O)CS2)c(O)c1 [Compound 4, (S)-4,5-dihydro-2-[2-hydroxy-4-(3,6,9-trioxadecyloxy)]-4-methyl-4-thiazolecarboxylic acid]
rats; rats po once or twice daily
  nephrotoxicity: virtually nephrotoxicity-free

## C[C@]1(C(=O)[O-])CSC(c2ncc(O)cc2O)=N1.[Na+] [Compound 6, (S)-4,5-dihydro-2-(3,5-dihydroxy-2-pyridinyl)-4-methyl-4-thiazolecarboxylic acid]
Iron overloaded primates [4]
  relative percentages of the iron excreted in the feces and urine [feces/urine]: 58/42
[5]; rats po 237 µmol/kg b.i.d., until day 5
  urinary Kim-1: < 50 ng/kg/24h

## COCCOCCOc1cnc(C2=N[C@@](C)(C(=O)[O-])CS2)c(O)c1.[Na+] [Compound 8, (S)-4,5-dihydro-2-[3-hydroxy-5-(3,6-dioxaheptyloxy)-2-pyridinyl]-4-methyl-4-thiazolecarboxylic acid]
[5]
  BUN: well within the normal range
  SCr: well within the normal range

## COCCOCCOc1ccnc(C2=N[C@@](C)(C(=O)[O-])CS2)c1O.[Na+] [Compound 10, (S)-4,5-dihydro-2-[3-hydroxy-4-(3,6-dioxaheptyloxy)-2-pyridinyl]-4-methyl-4-thiazolecarboxylic acid]
[6]
  binding of the ligand to plasma: little, if any, binding
[7]
  binding of the ligand to plasma: little, if any, binding
[5]
  BUN: well within the normal range
  SCr: well within the normal range
